Test results: paper PMC7403104 (Antiviral Research, 2020)

Legend:
[1] = target: YFV polymerase (NS5 RdRp) (Yellow fever virus, UniProt P03314); test: biochemical
[2] = test system: six flaviviral polymerases (NS5 proteins of DENV3, TBEV, JEV, WNV, ZIKV, YFV); assay type: biochemical, flaviviruses
[3] = test system: flaviviral polymerases (DENV3, TBEV, JEV, WNV, ZIKV, YFV); assay type: biochemical, flaviviruses

Chain of YFV polymerase (NS5 RdRp) (P03314 2507-3411 limits assumed): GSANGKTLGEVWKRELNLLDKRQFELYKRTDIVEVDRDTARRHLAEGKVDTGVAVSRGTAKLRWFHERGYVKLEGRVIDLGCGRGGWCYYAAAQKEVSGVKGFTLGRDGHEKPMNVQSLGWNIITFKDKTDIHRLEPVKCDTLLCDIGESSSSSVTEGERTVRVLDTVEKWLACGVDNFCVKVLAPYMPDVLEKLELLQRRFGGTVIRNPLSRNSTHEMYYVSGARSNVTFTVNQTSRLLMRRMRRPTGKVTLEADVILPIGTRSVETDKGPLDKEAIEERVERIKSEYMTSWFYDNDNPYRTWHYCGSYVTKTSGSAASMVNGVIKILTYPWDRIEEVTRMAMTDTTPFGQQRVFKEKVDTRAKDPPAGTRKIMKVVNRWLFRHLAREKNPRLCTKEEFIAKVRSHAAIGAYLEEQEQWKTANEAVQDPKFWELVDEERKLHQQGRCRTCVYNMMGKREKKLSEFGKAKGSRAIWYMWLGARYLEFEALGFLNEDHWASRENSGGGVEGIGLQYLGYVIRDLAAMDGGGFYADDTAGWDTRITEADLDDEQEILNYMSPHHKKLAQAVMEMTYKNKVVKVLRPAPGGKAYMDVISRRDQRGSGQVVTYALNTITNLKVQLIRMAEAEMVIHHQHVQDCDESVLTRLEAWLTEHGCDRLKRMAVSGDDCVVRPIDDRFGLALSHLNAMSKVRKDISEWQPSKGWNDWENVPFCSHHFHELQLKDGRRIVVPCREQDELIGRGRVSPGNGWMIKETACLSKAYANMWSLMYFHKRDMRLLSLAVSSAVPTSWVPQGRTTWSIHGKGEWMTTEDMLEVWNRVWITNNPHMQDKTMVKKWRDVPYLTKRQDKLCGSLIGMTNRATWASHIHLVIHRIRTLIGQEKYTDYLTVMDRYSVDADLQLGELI

`CCC(CC)COC(=O)[C@H](C)N[P@](=O)(OC[C@H]1O[C@@](C#N)(c2ccc3c(N)ncnn23)[C@H](O)[C@@H]1O)Oc1ccccc1` [remdesivir, Remdesivir] was tested, and the IC50 [1] was 0.26 ± 0.03 µM, the “incorporation into newly synthesized RNA chain / chain termination” value [2] was “able to incorporate several (five) remdesivir molecules into the newly synthesized RNA chain and finish the primer elongation reaction” and the “IC50s range in words, flaviviral RdRps” value [3] was “hundreds of nanomolar to single digit micromolar”. It also gave an IC50 ([3]; read-out: IC50 range, all the tested flaviviral polymerases) of 0.2 to 2.2 µM.
